Measured values: patent US4673672A, “Substituted-[hydroxy(tetrahydro)-5-oxo-(2- and 3-furanyl or 2-thienyl)alkoxyphosphinyloxy]-alkanaminium hydroxide, inner salt oxides” (Sandoz Pharmaceuticals Corp., priority 1986, dated 1987)
Structures can show the parent of a compound that is named as a salt.

Tests used:
Abelson 8.1 lymphoma = assay: Tumor Cell Cytotoxicity test (TCC test), Abelson 8.1 lymphoma; assay type: cell-based; details: 5 μg, 72 hours; alkaline phosphatase assay
Method: (§1) As indicated above, all of the compounds of formula I are anti-tumor agents and are, therefore, useful in inhibiting the growth of various lymphomas, sarcomas, myelomas and leukemia cell lines.
(§2) In flat bottom microtiter plates (Nunc Roskilde, Denmark) were placed Abelson 8.1 lymphoma, YAC, L1210, P815, Meth A fibrosarcoma or fresh human neuroblastoma tumor cells in DMEM+10% fetal calf serum and the tumor cell-containing plates were incubated with 1,3 and 5 μg of the test compound for a period of 6 to 72 hours. The number of tumor cells present in the Abelson 8.1, YAC, L1210 and P815 assays was determined by measuring the alkaline phosphatase as follows:
(§3) The tumor cell plates were centrifuged (500×g) for ten minutes and the supernatant flicked off. Without further washing, 100 μl of buffer containing 20 μl of diethanolamine, 2 μM of MgCl2.6H2 O, 2.5 μM of p-nitrophenylphosphate and 10 mg Triton X-100 were added. The samples were incubated for 60 minutes at room temperature and the enzymatic reaction was terminated by the addition of 100 μl of 0.5N NaOH. The absorbance was then measured at 405 nm using a Titertek Multiskan apparatus.
(§4) At a concentration of 5 μg and an incubation period of 72 hours, the following results were obtained: […]

YAC = assay: Tumor Cell Cytotoxicity test (TCC test), YAC; assay type: cell-based; details: 5 μg, 72 hours; alkaline phosphatase assay
Method: as §1, §2, §3, §4

L1210 = assay: Tumor Cell Cytotoxicity test (TCC test), L1210; assay type: cell-based; details: 5 μg, 72 hours; alkaline phosphatase assay
Method: as §1, §2, §3, §4

P815 = assay: Tumor Cell Cytotoxicity test (TCC test), P815; assay type: cell-based; details: 5 μg, 72 hours; alkaline phosphatase assay
Method: as §1, §2, §3, §4

Meth A fibrosarcoma = assay: Tumor Cell Cytotoxicity test (TCC test), Meth A fibrosarcoma; assay type: cell-based; details: 5 μg, 72 hours; 3H-thymidine uptake
Method: as §1, §2
(§5) The number of tumor cells present in the Meth A fibrosarcoma and human neuroblastoma assays was measured by ^3 H-thymidine uptake as follows:
(§6) After 72 hours, the cells are thoroughly washed, and each well treated with ca. 0.1 μC ^3 H-thymidine. After 4-6 hours, the cells are collected using a commercial cell harvester, and the radioactivity in the […] is measured in a scintillation counter.
as §4

[1] = tested on: human neuroblastoma tumor cells; assay: Tumor Cell Cytotoxicity test (TCC test), fresh human neuroblastoma tumor cells; assay type: cell-based; details: 5 μg, 72 hours; 3H-thymidine uptake
Method: as §1, §2, §5, §6, §4

Abelson 8.1 tumor cells = assay: Influence on Cytotoxicity of ET-18-OCH3 test; assay type: cell-based; details: 5 μg test compound, 72 hours; mouse bone marrow cell macrophages preincubated with 10 μg ET-18-OCH3 for 24 hours; ET-18-OCH3 alone set at 100%
Method: Bone marrow cell macrophages (10^5 /well) obtained from [BALB/CX57/BL6 ]Fl mice were incubated with 10 μg of 1-octadecyl-2-methoxy-3-phosphoryl choline (ET-18-OCH3) for 24 hours in flat bottom microtiter plates (Nunc Roskilde, Denmark), after which time they are centrifuged and washed once. Abelson 8.1 tumor cells in DMEM+10% fetal calf serum and 1,3 and 5 μg of the test compound were then added to the plates. With the cytotoxicity of ET-18-OCH3 (10 μg) alone set at 100%, the inhibition or enhancement of the cytotoxic effect, as measured by an alkaline phosphatase assay, was determined and values recorded after 72 hours for 1, 3 and 5 .eta.g of the test substance. At a concentration of 5 μg, the following results were obtained: […]

Meth A sarcoma cells = assay: Meth A sarcoma implanted in CBF1 mice, tumor growth and survival; assay type: in vivo; details: p.o., 50 μg, 28 days; 7.3×10^6 Meth A sarcoma cells implanted; no control animals survived
Source text: Meth A fibrosarcoma cells were induced in BALB/C mice by administering methylcholanthrene according to the procedure of Old, et al. (L. J. Old, E. A. Boyse, D. A. Clarke, and E. Carswell, Ann. N.Y. Acad. Sci., 101, 80 (1962). These tumor cells were harvested from the peritoneal cavity 10 to 12 days after administration of methylcholanthrene. Ten CBF1 mice of 10-12 week age were each implanted with 7.3×10^6 Meth A sarcoma cells to serve as control. A second group of ten CBF1 mice were each implanted with 7.3×10^6 Meth A sarcoma cells and on day one after implant each mouse was treated p.o. with 5-50 μg of the test compound per day for a total of twenty or twenty-seven days. Tumor growth and survivors were assayed on days 7, 14, 21 and 28 after tumor implantation. Under these conditions, none of the control group animals survived, whereas 5 out of 10 animals which were administered 50 μg of the compound of Example 2 for 28 days survived and 8 out of 10 animals which were administered 50 μg of the compound of Example 5 for 28 days survived.

Row | Compound | % Inhibition Abel. (Abelson 8.1 lymphoma) | % Inhibition YAC (YAC) | % Inhibition L1210 (L1210) | % Inhibition P815 (P815) | % Inhibition Meth A (Meth A fibrosarcoma) | % Inhibition neuro. [1] | % Enhancement (of the cytotoxic effect of ET-18-OCH3) (Abelson 8.1 tumor cells) | animals survived (Meth A sarcoma cells)
1 | CCCCCCCCCCCCCCCCCCC1(COP(=O)([O-])OCC[N+](C)(C)C)CCC(=O)O1 (stereo not shown) [Example 2, 2-[hydroxy(tetrahydro)-2-(octadecyl-5-oxo-2-furanyl)methoxyphosphinyloxy]-N,N,N-trimethyl-ethanaminium hydroxide, inner salt-4-oxide] | 97% | 71% | 69% | 84% | 98% | 59% | 99.5% | 5 out of 10
2 | CCCCCCCCCCCCCCCCCCOCC1(COP(=O)([O-])OCC[N+](C)(C)C)CCCO1 (stereo not shown) [Example 5, 2-[(2-octadecyloxymethyltetrahydro-2-furanylmethoxy)-hydroxyphoshphinyloxyl]-N,N,N-trimethylethanaminium hydroxide inner salt-4-oxide] | 98% | 96% | – | – | – | – | > 90% | 8 out of 10
3 | CCCCCCCCCCCCCCCCCCC1(COP(=O)([O-])OCC[N+](C)(C)C)COC(=O)C1 (stereo not shown) [Example 6, 2-[hydroxy(tetrahydro)-3-(octadecyl-5-oxo-3-furanyl)methoxyphosphinyloxy]-N,N,N-trimethyl ethanaminium hydroxide, inner salt-4-oxide] | 50-70% | – | – | – | – | – | 90% | –
4 | CCCCCCCCCCCCCCCCCCC1(COP(=O)([O-])OCC[N+](C)(C)C)CCOC1 (stereo not shown) [Example 7, 2-[(3-octadecyltetrahydro-3-furanylmethoxy)-hydroxyphosphinyloxy]-N,N,N-trimethyl ethanaminium hydroxide, inner salt-4-oxide] | 70-90% | – | – | – | – | – | 90% | –
